Biological target: T1, CFTR (Homo sapiens, UniProt P13569, DEL508-508)
T1 construct: Primary CF airway epithelial cells were obtained from the UNC Cystic Fibrosis Tissue Procurement and Cell Culture Core; host or cells: primary CF airway epithelial cells
Assay: Equivalent current assay in Primary CF airway epithelial cells (NAUC)
Type: cell-based
Conditions: 24 h, normalized to VX809 (3 μM) positive control; for Nauc @ 3 μM: 3 μM test compound; for Nauc @ 10 μM: 10 μM test compound
Outline: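 NAUC is the area under the curve from forskolin (10 μM) plus VX770 (1 μM) addition to CFTR-172 (20 μM) block, after benzamil (5 μM). It is corrected for vehicle and scaled to 3 μM VX809 as 1.0 and DMSO as 0.0. Cells were exposed for 24 h to compounds with VX809; medians of ≥4 replicates were fitted sigmoidally.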

T1 sequence (P13569 with tags, fused parts or gaps DEL508-508): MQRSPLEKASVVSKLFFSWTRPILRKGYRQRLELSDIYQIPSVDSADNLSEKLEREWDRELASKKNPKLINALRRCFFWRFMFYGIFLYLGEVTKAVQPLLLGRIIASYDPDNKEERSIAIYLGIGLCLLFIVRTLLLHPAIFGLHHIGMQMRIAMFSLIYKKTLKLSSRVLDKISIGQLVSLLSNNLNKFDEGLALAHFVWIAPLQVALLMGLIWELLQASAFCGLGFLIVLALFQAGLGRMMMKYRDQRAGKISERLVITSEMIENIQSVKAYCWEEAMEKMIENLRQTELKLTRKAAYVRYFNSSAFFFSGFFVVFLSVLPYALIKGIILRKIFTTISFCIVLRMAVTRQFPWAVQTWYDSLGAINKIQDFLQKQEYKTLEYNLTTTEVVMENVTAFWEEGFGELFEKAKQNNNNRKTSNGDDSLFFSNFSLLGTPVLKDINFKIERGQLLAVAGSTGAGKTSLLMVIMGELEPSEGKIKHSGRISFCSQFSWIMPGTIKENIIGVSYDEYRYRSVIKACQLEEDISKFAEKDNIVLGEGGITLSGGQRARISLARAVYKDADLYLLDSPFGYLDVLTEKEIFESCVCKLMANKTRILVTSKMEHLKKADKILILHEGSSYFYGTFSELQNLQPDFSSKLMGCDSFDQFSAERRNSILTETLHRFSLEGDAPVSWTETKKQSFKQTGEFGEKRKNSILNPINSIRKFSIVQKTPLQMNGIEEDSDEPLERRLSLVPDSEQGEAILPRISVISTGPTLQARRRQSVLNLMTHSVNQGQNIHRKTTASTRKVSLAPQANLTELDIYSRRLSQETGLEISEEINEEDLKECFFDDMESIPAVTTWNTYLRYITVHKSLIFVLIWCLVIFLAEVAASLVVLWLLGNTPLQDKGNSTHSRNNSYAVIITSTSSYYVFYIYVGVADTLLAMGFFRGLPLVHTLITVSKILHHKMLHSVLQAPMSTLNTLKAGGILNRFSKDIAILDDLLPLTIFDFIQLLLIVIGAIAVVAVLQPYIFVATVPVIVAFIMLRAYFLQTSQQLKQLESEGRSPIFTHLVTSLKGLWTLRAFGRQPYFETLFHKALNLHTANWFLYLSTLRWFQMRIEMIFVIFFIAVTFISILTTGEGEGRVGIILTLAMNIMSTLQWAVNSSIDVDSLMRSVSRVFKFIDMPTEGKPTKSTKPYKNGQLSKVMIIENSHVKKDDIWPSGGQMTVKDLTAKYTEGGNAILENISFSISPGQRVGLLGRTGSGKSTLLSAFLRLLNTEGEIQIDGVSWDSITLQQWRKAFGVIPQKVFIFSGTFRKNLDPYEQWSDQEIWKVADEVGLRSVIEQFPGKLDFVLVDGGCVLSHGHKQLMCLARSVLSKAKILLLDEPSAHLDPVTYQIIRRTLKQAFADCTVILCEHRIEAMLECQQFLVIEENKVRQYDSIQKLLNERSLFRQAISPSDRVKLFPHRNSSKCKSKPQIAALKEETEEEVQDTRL

CC(C)CC1NC2(C(=O)Nc3c(Cl)cc(Cl)cc32)C2C(=O)N(c3cc(Cl)cc(Cl)c3)C(=O)C12 (centres unmarked) [Example 164]
Nauc @ 3 μM: ++ (NAUC “++” refers to an observed NAUC 170-140% of positive control) | Nauc @ 10 μM: +++ (NAUC “+++” refers to an observed NAUC >170% of positive control)

O=C1C2C(CO)NC3(C(=O)Nc4c(Cl)cc(Cl)cc43)C2C(=O)N1c1cc(Cl)cc(Cl)c1 (centres unmarked) [Example 165]
Nauc @ 3 μM: ++ (NAUC “++” refers to an observed NAUC 170-140% of positive control) | Nauc @ 10 μM: ++ (NAUC “++” refers to an observed NAUC 170-140% of positive control)

CC(O)C1NC2(C(=O)Nc3c(Cl)cc(Cl)cc32)C2C(=O)N(c3cc(Cl)cc(Cl)c3)C(=O)C12 (centres unmarked) [Example 166]
Nauc @ 3 μM: ++ (NAUC “++” refers to an observed NAUC 170-140% of positive control) | Nauc @ 10 μM: ++ (NAUC “++” refers to an observed NAUC 170-140% of positive control)

COC1(OC)CC2C3C(=O)N(c4cc(Cl)cc(Cl)c4)C(=O)C3C3(C(=O)Nc4c(Cl)cc(Cl)cc43)N2C1 (centres unmarked) [Example 167]
Nauc @ 3 μM: + (NAUC “+” refers to an observed NAUC <140% of positive control) | Nauc @ 10 μM: ++ (NAUC “++” refers to an observed NAUC 170-140% of positive control)

COc1c(Cl)cc(N2C(=O)C3C4CC(OC)(OC)CN4C4(C(=O)Nc5c(Cl)cc(Cl)cc54)C3C2=O)cc1Cl (centres unmarked) [Example 168]
Nauc @ 3 μM: + (NAUC “+” refers to an observed NAUC <140% of positive control) | Nauc @ 10 μM: ++ (NAUC “++” refers to an observed NAUC 170-140% of positive control)

O=C1C2C3CC4(CN3C3(C(=O)Nc5c(Cl)cc(Cl)cc53)C2C(=O)N1c1cc(Cl)cc(Cl)c1)OCCO4 (centres unmarked) [Example 169]
Nauc @ 3 μM: + (NAUC “+” refers to an observed NAUC <140% of positive control) | Nauc @ 10 μM: ++ (NAUC “++” refers to an observed NAUC 170-140% of positive control)

C[C@]1(O)CC2C3C(=O)N(c4cc(Cl)cc(Cl)c4)C(=O)C3C3(C(=O)Nc4c(Cl)cc(Cl)cc43)N2C1 (some centres unmarked) [Example 171]
Nauc @ 3 μM: +++ (NAUC “+++” refers to an observed NAUC >170% of positive control) | Nauc @ 10 μM: +++ (NAUC “+++” refers to an observed NAUC >170% of positive control)

C[C@]1(O)CC2C3C(=O)N(c4cc(Cl)cc(Cl)n4)C(=O)C3C3(C(=O)Nc4c(Cl)cc(Cl)cc43)N2C1 (some centres unmarked) [Example 172]
Nauc @ 3 μM: ++ (NAUC “++” refers to an observed NAUC 170-140% of positive control) | Nauc @ 10 μM: +++ (NAUC “+++” refers to an observed NAUC >170% of positive control)

C[C@@]1(F)CC2C3C(=O)N(c4cc(Cl)cc(Cl)n4)C(=O)C3C3(C(=O)Nc4c(Cl)cc(Cl)cc43)N2C1 (some centres unmarked) [Example 173]
Nauc @ 3 μM: +++ (NAUC “+++” refers to an observed NAUC >170% of positive control) | Nauc @ 10 μM: +++ (NAUC “+++” refers to an observed NAUC >170% of positive control)

O=C1C2C3CC4(CC4)CN3C3(C(=O)Nc4c(Cl)cc(Cl)cc43)C2C(=O)N1c1cc(Cl)cc(Cl)c1 (centres unmarked) [Example 174]
Nauc @ 3 μM: +++ (NAUC “+++” refers to an observed NAUC >170% of positive control) | Nauc @ 10 μM: +++ (NAUC “+++” refers to an observed NAUC >170% of positive control)

CC1(C)CC2C3C(=O)N(c4cc(Cl)cc(Cl)n4)C(=O)C3C3(C(=O)Nc4c(Cl)cc(Cl)cc43)N2C1 (centres unmarked) [Example 175]
Nauc @ 3 μM: +++ (NAUC “+++” refers to an observed NAUC >170% of positive control) | Nauc @ 10 μM: +++ (NAUC “+++” refers to an observed NAUC >170% of positive control)

CC1(C)CC2C3C(=O)N(c4cc(Cl)cc(Cl)n4)C(=O)C3C3(C(=O)Nc4c(Cl)cc(Cl)cc43)N2C1 (centres unmarked) [Example 176]
Nauc @ 3 μM: ++ (NAUC “++” refers to an observed NAUC 170-140% of positive control) | Nauc @ 10 μM: ++ (NAUC “++” refers to an observed NAUC 170-140% of positive control)

COc1c(Cl)cc(N2C(=O)C3C4CC5(CC5)CN4C4(C(=O)Nc5c(Cl)cc(Cl)cc54)C3C2=O)cc1Cl (centres unmarked) [Example 177]
Nauc @ 3 μM: ++ (NAUC “++” refers to an observed NAUC 170-140% of positive control) | Nauc @ 10 μM: +++ (NAUC “+++” refers to an observed NAUC >170% of positive control)

O=C1C2C(Cc3ccccc3F)NC3(C(=O)Nc4c(Cl)cc(Cl)cc43)C2C(=O)N1c1cc(Cl)cc(Cl)c1 (centres unmarked) [Example 181]
Nauc @ 3 μM: +++ (NAUC “+++” refers to an observed NAUC >170% of positive control) | Nauc @ 10 μM: +++ (NAUC “+++” refers to an observed NAUC >170% of positive control)

Cc1cccc(N2C(=O)C3C4CCCN4C4(C(=O)Nc5c(Cl)cc(Cl)cc54)C3C2=O)n1 (centres unmarked) [Example 183]
Nauc @ 3 μM: ++ (NAUC “++” refers to an observed NAUC 170-140% of positive control) | Nauc @ 10 μM: + (NAUC “+” refers to an observed NAUC <140% of positive control)

O=C1C2C3CC4(CC4)CN3C3(C(=O)Nc4c(Cl)cc(Cl)cc43)C2C(=O)N1c1cc(Cl)cc(Cl)n1 (centres unmarked) [Example 184]
Nauc @ 3 μM: +++ (NAUC “+++” refers to an observed NAUC >170% of positive control) | Nauc @ 10 μM: +++ (NAUC “+++” refers to an observed NAUC >170% of positive control)

[2H]C([2H])([2H])C1(C([2H])([2H])[2H])CC2C3C(=O)N(c4cc(Cl)cc(Cl)c4)C(=O)C3C3(C(=O)Nc4c(Cl)cc(Cl)cc43)N2C1 (centres unmarked) [Example 185]
Nauc @ 3 μM: +++ (NAUC “+++” refers to an observed NAUC >170% of positive control) | Nauc @ 10 μM: +++ (NAUC “+++” refers to an observed NAUC >170% of positive control)

N#Cc1ccccc1CC1NC2(C(=O)Nc3c(Cl)cc(Cl)cc32)C2C(=O)N(c3cc(Cl)cc(Cl)c3)C(=O)C12 (centres unmarked) [Example 186]
Nauc @ 3 μM: + (NAUC “+” refers to an observed NAUC <140% of positive control) | Nauc @ 10 μM: +++ (NAUC “+++” refers to an observed NAUC >170% of positive control)

O=C1C2C(Cc3cccc(Cl)c3)NC3(C(=O)Nc4c(Cl)cc(Cl)cc43)C2C(=O)N1c1cc(Cl)cc(Cl)c1 (centres unmarked) [Example 187]
Nauc @ 3 μM: +++ (NAUC “+++” refers to an observed NAUC >170% of positive control) | Nauc @ 10 μM: ++ (NAUC “++” refers to an observed NAUC 170-140% of positive control)

O=C1C2C(Cc3ccccc3O)NC3(C(=O)Nc4c(Cl)cc(Cl)cc43)C2C(=O)N1c1cc(Cl)cc(Cl)c1 (centres unmarked) [Example 188]
Nauc @ 3 μM: + (NAUC “+” refers to an observed NAUC <140% of positive control) | Nauc @ 10 μM: +++ (NAUC “+++” refers to an observed NAUC >170% of positive control)

N#Cc1ccc(CC2NC3(C(=O)Nc4c(Cl)cc(Cl)cc43)C3C(=O)N(c4cc(Cl)cc(Cl)c4)C(=O)C23)cc1 (centres unmarked) [Example 189]
Nauc @ 3 μM: + (NAUC “+” refers to an observed NAUC <140% of positive control) | Nauc @ 10 μM: +++ (NAUC “+++” refers to an observed NAUC >170% of positive control)

O=C1C2C(Cc3ccccc3Cl)NC3(C(=O)Nc4c(Cl)cc(Cl)cc43)C2C(=O)N1c1cc(Cl)cc(Cl)c1 (centres unmarked) [Example 190]
Nauc @ 3 μM: +++ (NAUC “+++” refers to an observed NAUC >170% of positive control) | Nauc @ 10 μM: +++ (NAUC “+++” refers to an observed NAUC >170% of positive control)

O=C1C2C3CC(F)(F)CN3C3(C(=O)Nc4c(Cl)cc(Cl)cc43)C2C(=O)N1c1cc(Cl)cc(Cl)n1 (centres unmarked) [Example 193]
Nauc @ 3 μM: +++ (NAUC “+++” refers to an observed NAUC >170% of positive control) | Nauc @ 10 μM: +++ (NAUC “+++” refers to an observed NAUC >170% of positive control)

COc1c(Cl)cc(N2C(=O)C3C4CC(F)(F)CN4C4(C(=O)Nc5c(Cl)cc(Cl)cc54)C3C2=O)cc1Cl (centres unmarked) [Example 194]
Nauc @ 3 μM: +++ (NAUC “+++” refers to an observed NAUC >170% of positive control) | Nauc @ 10 μM: ++ (NAUC “++” refers to an observed NAUC 170-140% of positive control)

Cc1ccc(CC2NC3(C(=O)Nc4c(Cl)cc(Cl)cc43)C3C(=O)N(c4cc(Cl)cc(Cl)c4)C(=O)C23)cc1 (centres unmarked) [Example 195]
Nauc @ 3 μM: + (NAUC “+” refers to an observed NAUC <140% of positive control) | Nauc @ 10 μM: ++ (NAUC “++” refers to an observed NAUC 170-140% of positive control)

O=C1C2C(Cc3ccc(F)cc3)NC3(C(=O)Nc4c(Cl)cc(Cl)cc43)C2C(=O)N1c1cc(Cl)cc(Cl)c1 (centres unmarked) [Example 196]
Nauc @ 3 μM: + (NAUC “+” refers to an observed NAUC <140% of positive control) | Nauc @ 10 μM: ++ (NAUC “++” refers to an observed NAUC 170-140% of positive control)

COc1ccc(CC2NC3(C(=O)Nc4c(Cl)cc(Cl)cc43)C3C(=O)N(c4cc(Cl)cc(Cl)c4)C(=O)C23)cc1 (centres unmarked) [Example 198]
Nauc @ 3 μM: + (NAUC “+” refers to an observed NAUC <140% of positive control) | Nauc @ 10 μM: ++ (NAUC “++” refers to an observed NAUC 170-140% of positive control)

Cc1ccccc1CC1NC2(C(=O)Nc3c(Cl)cc(Cl)cc32)C2C(=O)N(c3cc(Cl)cc(Cl)c3)C(=O)C12 (centres unmarked) [Example 199]
Nauc @ 3 μM: +++ (NAUC “+++” refers to an observed NAUC >170% of positive control) | Nauc @ 10 μM: ++ (NAUC “++” refers to an observed NAUC 170-140% of positive control)

— patent publication US10072017B2, “Compounds and methods for the treatment of cystic fibrosis” (Flatley Discovery Lab, LLC, priority 2015, dated 2018)
